According to the supplement of paper PMC10307832:

How the values were obtained:
Assay in all cases: relative viability (nuclei count vs DMSO), 5 days (fraction); higher = more cells survive
IU1-47 + Decitabine = compound: CC1=CC(=C(N1C2=CC=C(C=C2)Cl)C)C(=O)CN3CCCCC3 [IU1-47] + Nc1ncn([C@H]2C[C@H](O)[C@@H](CO)O2)c(=O)n1 [Decitabine] (partner 2 µM)
How it was run: (§1)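 Medians of duplicate plates are given as relative viability. That measure is the nuclei count in treated wells divided by the count in vehicle wells. Counts were taken on 4× images of lung cancer cell lines in 1536-well plates, 5 days after pin-tool dosing the day after seeding with one drug alone or a fixed anchor-drug dose plus five library-drug doses (not always all listed) in √10 steps.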

IU1-47 + Trametinib = compound: CC1=CC(=C(N1C2=CC=C(C=C2)Cl)C)C(=O)CN3CCCCC3 [IU1-47] + CC(=O)Nc1cccc(-n2c(=O)n(C3CC3)c(=O)c3c(Nc4ccc(I)cc4F)n(C)c(=O)c(C)c32)c1 [Trametinib] (partner 0.02 µM)
How it was run: as §1

IU1-47 + Phenformin = compound: CC1=CC(=C(N1C2=CC=C(C=C2)Cl)C)C(=O)CN3CCCCC3 [IU1-47] + N=C(N)NC(=N)NCCc1ccccc1 [Phenformin] (partner 250 µM)
How it was run: as §1

FG-4592 + Navitoclax = compound: Cc1nc(C(=O)NCC(=O)O)c(O)c2ccc(Oc3ccccc3)cc12 [FG-4592] + CC1(C)CCC(c2ccc(Cl)cc2)=C(CN2CCN(c3ccc(C(=O)NS(=O)(=O)c4ccc(N[C@H](CCN5CCOCC5)CSc5ccccc5)c(S(=O)(=O)C(F)(F)F)c4)cc3)CC2)C1 [Navitoclax] (partner 0.5 µM)
How it was run: as §1

Cell Line	relative viability (IU1-47 + Decitabine; first compound 0.08 µM)	relative viability (IU1-47 + Decitabine; first compound 0.253 µM)	relative viability (IU1-47 + Decitabine; first compound 0.8 µM)	relative viability (IU1-47 + Decitabine; first compound 2.53 µM)	relative viability (IU1-47 + Decitabine; first compound 8 µM)	relative viability (IU1-47 + Trametinib; first compound 0.08 µM)	relative viability (IU1-47 + Trametinib; first compound 0.253 µM)	relative viability (IU1-47 + Trametinib; first compound 0.8 µM)	relative viability (IU1-47 + Trametinib; first compound 2.53 µM)	relative viability (IU1-47 + Trametinib; first compound 8 µM)	relative viability (IU1-47 + Phenformin; first compound 0.08 µM)	relative viability (IU1-47 + Phenformin; first compound 0.253 µM)	relative viability (IU1-47 + Phenformin; first compound 0.8 µM)	relative viability (IU1-47 + Phenformin; first compound 2.53 µM)	relative viability (IU1-47 + Phenformin; first compound 8 µM)	relative viability (FG-4592 + Navitoclax; first compound 0.08 µM)	relative viability (FG-4592 + Navitoclax; first compound 0.253 µM)	relative viability (FG-4592 + Navitoclax; first compound 0.8 µM)	relative viability (FG-4592 + Navitoclax; first compound 2.53 µM)	relative viability (FG-4592 + Navitoclax; first compound 8 µM)
NCI-H1792	0.625	0.639	0.611	0.497	0.371	0.569	0.392	0.437	0.402	0.422	0.302	0.249	0.197	0.174	0.183	0.619	0.554	0.575	0.611	0.644
ChaGo-K-1	0.531	0.529	0.542	0.536	0.533	0.927	0.869	0.958	0.813	0.814	0.464	0.545	0.428	0.579	0.451	1.04	1.03	0.708	1.15	0.54
COR-L23	0.337	0.45	0.481	0.432	0.436	0.579	0.578	0.595	0.534	0.788	0.414	0.45	0.472	0.438	0.492	0.924	0.98	1.14	0.909	0.932
COR-L 105	0.793	0.624	0.677	0.751	0.66	0.522	0.422	0.45	0.461	0.459	0.418	0.438	0.506	0.501	0.454	0.777	0.709	0.919	0.595	0.74
LK-2	0.354	0.35	0.34	0.372	0.179	0.932	0.834	0.772	0.545	0.831	0.467	0.504	0.432	0.579	0.239	0.87	0.771	0.734	0.836	0.674
201T	0.891	0.864	0.943	0.867	0.856	0.719	0.747	0.715	0.7	0.73	0.419	0.435	0.486	–	0.362	1.14	1.19	1.21	1.18	1.22
HCC-44	0.982	0.938	0.966	0.917	1.03	1.08	1.1	1.04	1.08	0.992	0.167	0.183	0.143	0.221	0.183	1.01	0.935	0.997	1.11	1.03
NCI-H596	1.05	–	1.03	1.09	0.977	0.765	–	0.779	0.834	0.677	0.786	0.61	0.78	0.709	0.677	0.897	0.914	–	0.991	0.817
